Measured values as given in patent publication US20260285853A1, “COMPOUNDS AND METHODS FOR MODULATING SPLICING” (REMIX THERAPEUTICS INC., priority 2023, published 2026).
pIC50: −log10 of the molar value.

Columns and labels:
Format in all cases: cell-based
HTT mRNA [1] = assay: Splicing RT-qPCR assay (THP), Table 2A; conditions: Table 2A, THP; for AC50: HTT alternative junction (AJ) mRNA, read-out: HTT AJ (AC50, increase in alternative junction mRNA); for pIC50: HTT canonical junction (CJ) mRNA, read-out: HTT CJ (IC50, decrease in canonical junction mRNA)
MYB mRNA [2] = assay: Gene panel canonical junction qPCR assay, decrease in CJ mRNA, Table 3; conditions: decrease in CJ mRNA levels, canonical junction qPCR, gene panel
Outline: (§1)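 Cells: A673 or K562; 24 h compound exposure, 37 °C, 5% CO2; 11-pt 3-fold series from 10 uM final; DMSO ≤0.25%. Lysate → cDNA → qPCR with junction-spanning primers/probe for CJ transcript. ΔCt vs housekeeper, ΔΔCt vs DMSO, 2^(−ΔΔCt), % response, 4PL → IC50.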

HTT mRNA [3] = assay: as above; conditions: decrease in CJ mRNA levels, canonical junction qPCR, gene panel
Outline: as §1

MYB mRNA [4] = assay: Splicing RT-qPCR assay (THP), Table 2A; conditions: Table 2A, THP; for AC50: MYB alternative junction (AJ) mRNA, read-out: MYB AJ (AC50, increase in alternative junction mRNA); for pIC50: MYB canonical junction (CJ) mRNA, read-out: MYB CJ (IC50, decrease in canonical junction mRNA)
[5] = system: SH-SY5Y (human neuroblastoma) cells; assay: Cell viability, Cell Titer Glo 2.0 assay; conditions: read-out: Viability SHSY5Y.3 GI50
Outline: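 CellTiter-Glo 2.0 luminescence read-out after 72 h compound exposure (37 °C, 5% CO2); medium-only wells as blank. DMSO 0.1% final.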

| Structure (SMILES) | AC50 (HTT mRNA [1]) | pIC50 (HTT mRNA [1]) | pIC50 (MYB mRNA [2]) | pIC50 (HTT mRNA [3]) | AC50 (MYB mRNA [4]) | pIC50 (MYB mRNA [4]) | GI50 [5] |
| --- | --- | --- | --- | --- | --- | --- | --- |
| COc1nc2c(C(=O)Nc3cc4cn(C)nc4c(F)c3OC)ccc(N3C[C@H](C)N[C@@H](C)C3)c2s1 [Compound 786] | 1 to 10 µM | 5.00 to 6.00 | 6.00 to 7.00 | 5.00 to 6.00 | 0.1 to 1 µM | 6.00 to 7.00 | 1 to 10 µM |
| COc1nc2c(C(=O)Nc3cc4cc(C)nn4cc3OC)ccc(N3C[C@H](C)N[C@@H](C)C3)c2s1 [Compound 787, 7-((3S,5S)-3,5-dimethylpiperazin-1-yl)-2-methoxy-N-(6-methoxy-2-methylpyrazolo[1,5-a]pyridin-5-yl)benzo[d]thiazole-4-carboxamide 2,2,2-trifluoroacetate] | > 10 µM | < 5.00 | 5.00 to 6.00 | < 5.00 | > 10 µM | 5.00 to 6.00 | 1 to 10 µM |
| COc1nc2c(C(=O)Nc3cc(F)c4nn(C)cc4c3)ccc(N3C[C@@H](C)NC4(CC4)C3)c2s1 [Compound 788] | > 10 µM | < 5.00 | 6.00 to 7.00 | < 5.00 | < 0.1 µM | 6.00 to 7.00 | 1 to 10 µM |
| COc1nc2c(C(=O)Nc3cc(F)c4nn(C)cc4c3)ccc(N3CCN(C)CC3)c2s1 [Compound 789] | 0.1 to 1 µM | 6.00 to 7.00 | > 7.00 | 6.00 to 7.00 | < 0.1 µM | > 7.00 | 0.1 to 1 µM |
| COc1cc2c(N3C[C@H](C)N[C@@H](C)C3)ccc(C(=O)Nc3cc(F)c4nn(C)cc4c3)c2o1 [Compound 790] | 0.1 to 1 µM | 5.00 to 6.00 | > 7.00 | 5.00 to 6.00 | < 0.1 µM | > 7.00 | 0.1 to 1 µM |
| Cc1cn2cc(NC(=O)c3ccc(N4CCC(NC5CC5)CC4)c4cn(C)nc34)nc2c(CNC(C)C(F)(F)F)n1 (stereo not drawn) [Compound 791, 4-[4-(cyclopropylamino)-1-piperidyl]-2-methyl-N-[6-methyl-8-[[(2,2,2-trifluoro-1-methyl-ethyl)amino]methyl]imidazo[1,2-a]pyrazin-2-yl]indazole-7-carboxamide] | > 10 µM | < 5.00 | < 5.00 | < 5.00 | > 10 µM | < 5.00 | 1 to 10 µM |
| Cc1cn2cc(NC(=O)c3ccc(N(C)C)c4cn(C)nc34)nc2c(CNS(C)(=O)=O)n1 [Compound 792] | 1 to 10 µM | 5.00 to 6.00 | 5.00 to 6.00 | 5.00 to 6.00 | 1 to 10 µM | 5.00 to 6.00 | 1 to 10 µM |
| Cn1cc2cc(NC(=O)c3ccc(N4CCC(NC5CC5)CC4)c4cn(C)nc34)cc(CO)c2n1 [Compound 793] | > 10 µM | < 5.00 | 5.00 to 6.00 | < 5.00 | 1 to 10 µM | 5.00 to 6.00 | 1 to 10 µM |
| C=CCNC1CCN(c2ccc(C(=O)Nc3cc(CO)c4nn(C)cc4c3)c3nn(C)cc23)CC1 [Compound 794, 4-[4-(allylamino)-1-piperidyl]-N-[7-(hydroxymethyl)-2-methyl-indazol-5-yl]-2-methyl-indazole-7-carboxamide] | > 10 µM | < 5.00 | 6.00 to 7.00 | < 5.00 | 1 to 10 µM | 6.00 to 7.00 | 1 to 10 µM |
| Cc1cn2cc(NC(=O)c3ccc(N4CCC(NC5CC5)CC4)c4cn(C)nc34)nc2c(CN2CCCCS2(=O)=O)n1 [Compound 795] | > 10 µM | < 5.00 | < 5.00 | < 5.00 | > 10 µM | < 5.00 | 1 to 10 µM |
| C[C@H]1CN(c2ccc(C(=O)Nc3cc(F)c4nn(C)cc4c3)c3sc(OCc4ccnn4C)nc23)C[C@H](C)N1 [Compound 796, 4-[(3S,5S)-3,5-dimethylpiperazin-1-yl]-N-(7-fluoro-2-methyl-indazol-5-yl)-2-[(2-methylpyrazol-3-yl)methoxy]-1,3-benzothiazole-7-carboxamide] | > 10 µM | < 5.00 | < 5.00 | < 5.00 | > 10 µM | < 5.00 | 1 to 10 µM |
| C[C@H]1CN(c2ccc(C(=O)Nc3cc(F)c4nn(C)cc4c3)c3sc(OCC4CCNC4)nc23)C[C@H](C)N1 (stereo partly drawn) [Compound 797, 4-((3S,5S)-3,5-dimethylpiperazin-1-yl)-N-(7-fluoro-2-methyl-2H-indazol-5-yl)-2-(pyrrolidin-3-ylmethoxy)benzo[d]thiazole-7-carboxamide bis(2,2,2-trifluoroacetate)] | > 10 µM | < 5.00 | < 5.00 | < 5.00 | > 10 µM | < 5.00 | > 10 µM |
| CCNC1CCN(c2ccc(C(=O)Nc3cc(CNS(C)(=O)=O)c4nn(C)cc4c3)c3nn(C)cc23)CC1 [Compound 798, 4-[4-(ethylamino)-1-piperidyl]-N-[7-(methanesulfonamidomethyl)-2-methyl-indazol-5-yl]-2-methyl-indazole-7-carboxamide] | 1 to 10 µM | 5.00 to 6.00 | 5.00 to 6.00 | 5.00 to 6.00 | 1 to 10 µM | 5.00 to 6.00 | 1 to 10 µM |
| COc1nc2c(C(=O)Nc3cn4ccnc4c(F)c3OC)ccc(N3C[C@H](C)N[C@@H](C)C3)c2s1 [Compound 799] | > 10 µM | < 5.00 | 5.00 to 6.00 | < 5.00 | 1 to 10 µM | 5.00 to 6.00 | 1 to 10 µM |
| COc1nc2c(C(=O)Nc3ccc4nn(C)cc4c3)ccc(N3C[C@H](C)N[C@@H](C)C3)c2s1 [Compound 800, 7-[(3S,5S)-3,5-dimethylpiperazin-1-yl]-2-methoxy-N-(2-methylindazol-5-yl)-1,3-benzothiazole-4-carboxamide] | 0.1 to 1 µM | 6.00 to 7.00 | > 7.00 | 6.00 to 7.00 | < 0.1 µM | > 7.00 | < 0.1 µM |
| COc1nc2c(C(=O)Nc3cc(F)c4nn(C)cc4c3)ccc(N3CC4CCC(C3)N4)c2s1 [Compound 801, 7-(3,8-diazabicyclo[3.2.1]octan-3-yl)-N-(7-fluoro-2-methyl-indazol-5-yl)-2-methoxy-1,3-benzothiazole-4-carboxamide] | 1 to 10 µM | 5.00 to 6.00 | > 7.00 | 5.00 to 6.00 | < 0.1 µM | > 7.00 | 0.1 to 1 µM |
| Cc1cn2cc(NC(=O)c3ccc(N4CCC(NC5CC5)CC4)c4cn(C)nc34)nc2c(Cn2ccnn2)n1 [Compound 803] | > 10 µM | < 5.00 | < 5.00 | < 5.00 | > 10 µM | < 5.00 | 1 to 10 µM |
| Cc1cn2cc(NC(=O)c3ccc(N4CCC(NC5CC5)CC4)c4cn(C)nc34)nc2c(CNC2(C)COC2)n1 [Compound 804, 4-[4-(cyclopropylamino)-1-piperidyl]-2-methyl-N-[6-methyl-8-[[(3-methyloxetan-3-yl)amino]methyl]imidazo[1,2-a]pyrazin-2-yl]indazole-7-carboxamide] | > 10 µM | < 5.00 | < 5.00 | < 5.00 | > 10 µM | < 5.00 | 1 to 10 µM |
| Cc1cn2cc(NC(=O)c3ccc(N4CCC(NC5CC5)CC4)c4cn(C)nc34)nc2c(CCS(=O)(=O)N(C)C)n1 [Compound 805] | > 10 µM | < 5.00 | 5.00 to 6.00 | < 5.00 | > 10 µM | 5.00 to 6.00 | 1 to 10 µM |
| COc1cc2c(N3CCC(NC4CC4)CC3)ccc(C(=O)Nc3cn4cc(C)nc(CNS(C)(=O)=O)c4n3)n2n1 [Compound 806] | > 10 µM | < 5.00 | 5.00 to 6.00 | < 5.00 | 1 to 10 µM | 5.00 to 6.00 | 1 to 10 µM |
| COC(=O)NCc1nc(C)cn2cc(NC(=O)c3ccc(N4CCC(NC5CC5)CC4)c4cn(C)nc34)nc12 [Compound 807] | > 10 µM | < 5.00 | < 5.00 | < 5.00 | > 10 µM | < 5.00 | 1 to 10 µM |
| COc1nc2c(C(=O)Nc3ccc4nn(C)cc4c3C(C)=O)ccc(N3C[C@H](C)N[C@@H](C)C3)c2s1 [Compound 808] | 1 to 10 µM | < 5.00 | < 5.00 | < 5.00 | > 10 µM | < 5.00 | 1 to 10 µM |
| COc1nc2c(C(=O)Nc3cc4cn(C)nc4nc3OC)ccc(N3C[C@H](C)N[C@@H](C)C3)c2s1 [Compound 809] | > 10 µM | < 5.00 | 6.00 to 7.00 | < 5.00 | < 0.1 µM | 6.00 to 7.00 | 0.1 to 1 µM |
| COc1nc2c(C(=O)Nc3cc(F)c4nc(CO)cn4c3)ccc(N3C[C@H](C)N[C@@H](C)C3)c2s1 [Compound 810] | 0.1 to 1 µM | 5.00 to 6.00 | > 7.00 | 5.00 to 6.00 | < 0.1 µM | > 7.00 | < 0.1 µM |
